Values after ≈ are worked out from the molar mass of the structure shown.
Test system: Plasmodium falciparum
Experiment: Antimalarial activity as reduced heme degradation in Plasmodium falciparum infected human erythrocytes
Type: functional, organism-based

Row | DC50 [µg/mL] | Compound
1 | 75 (≈ 124 µM) | C=C1CCC[C@]2(C)CC[C@@H](C(C)C)[C@H](OC(=O)/C=C/c3ccc(OC(=O)CCCCCCCCCCCCCCC)cc3)[C@@H]12
2 | > 200 | C=C1CCC[C@]2(C)CC[C@@H](C(C)C)[C@H](OC(=O)/C=C\c3ccc(O)cc3)[C@@H]12
3 | 48 (≈ 125 µM) | C=C1CCC[C@]2(C)CC[C@@H](C(C)C)[C@H](OC(=O)/C=C/c3ccc(OC)cc3)[C@@H]12
4 | 110 (≈ 173 µM) | C=C1CCC[C@]2(C)CC[C@@H](C(C)C)[C@H](OC(=O)/C=C/c3ccc(OC(=O)CCCCCCCCCCCCCCCCC)cc3)[C@@H]12
5 | 1.3 (≈ 4.01 µM) | C=C[C@H]1CN2CC[C@H]1C[C@H]2[C@H](O)c1ccnc2ccc(OC)cc12 [QUININE]
6 | > 200 | C=C1CCC[C@]2(C)CC[C@@H](C(C)C)[C@H](OC(=O)/C=C/c3ccc(O)cc3)[C@@H]12
7 | 52 (≈ 86 µM) | C=C1CCC[C@]2(C)CC[C@@H](C(C)C)[C@H](OC(=O)/C=C/c3ccc(OC(=O)CCCCCCC/C=C\CCCCCC)cc3)[C@@H]12
8 | > 200 | C=C1CCC[C@]2(C)CC[C@@H](C(C)C)[C@H](OC(=O)/C=C\c3ccc(OC(C)=O)cc3)[C@@H]12

From ChEMBL document CHEMBL1148974, “New eudesmane derivatives from Melampodium camphoratum from the Suriname rainforest” (J Nat Prod, 2004)
